{"source": "patent US10021879B2", "about": "“Fumigant compositions and methods based on hexafluoropropylene oxide (HFPO)” (priority 2016, dated 2018)", "key": {"[1]": {"test": "Volatility of aqueous fumigant compositions with and without surfactant (weight loss)", "format": "physicochemical", "settings": "10 grams HFPO + 4.0 grams Tween 80 in 40.0 grams water vs. 10.0 grams HFPO in 40 grams water; 20° C., vent open, weight loss every 30 seconds; FIG. 1", "procedure": "Experimentation was carried out to determine the volatility of aqueous fumigant compositions, both with and without inclusion of a surfactant. In each case, HFPO was placed in a chilled 500 ml Fischer Porter tube that was equipped with a vent to remove any gases. The vessel was cooled to 0° C. and was charged with varying amounts of water, HFPO and surfactant. The temperature was equilibrated to 20° C. and the reactor was placed on a balance. The vent tube was opened and the weight loss was recorded every 30 seconds.\nIn analyzing the effects of adding surfactant to an aqueous solution of HFPO, 10.0 grams of HFPO was added to 40 grams of water. In a separate experiment, 10 grams of HFPO and 4.0 grams of Tween™ 80 were added to 40.0 grams of water. FIG. 1 provides a graphical representation of the numerical data comparing the volatility of an aqueous solution of HFPO, both with and without inclusion of the Tween™ 80 nonionic surfactant."}, "[2]": {"test_system": "Abutilon theophrasti Medik", "test": "Fumigant test on seed germination in soil, Abutilon theophrasti Medik", "format": "in vivo", "settings": "for Abutilon theophrastic Medik (seeds germinated): 14 seeds in soil, 2 days exposure, counted after 10 days", "procedure": "(§1) In particular, in 440 mL pressure vessels, fourteen seeds of Abutilon theophrasti Medik and fifteen seeds of Lolium multiflorum Lam were thoroughly mixed with 50 mL (approximately 30 grams) of soil and 6 ml of water. The filled vessels were kept at room temperature for 20-24 hours to allow the seeds to imbibe water before treatment. The vessels were sealed and evacuated, and then 80 ml, 160 ml and 440 ml, respectively, of gaseous HFPO was added. The vessels were thoroughly mixed and placed horizontally on the laboratory bench at ambient temperature for two days. The contents of each bottle were transferred to a plastic sterile Petri dish containing 7 mL of water. The Petri dishes were sealed with parafilm and incubated in the laboratory at ambient temperature. After 10 days, the number of germinated seeds was counted."}, "[3]": {"test_system": "Lolium multiflorum Lam", "test": "Fumigant test on seed germination in soil, Lolium multiflorum Lam", "format": "in vivo", "settings": "for Loliium multiflorum Lam (seeds germinated): 15 seeds in soil, 2 days exposure, counted after 10 days", "procedure": "as §1"}, "[4]": {"settings": "80 ml gaseous HFPO in 440 mL vessel"}, "[5]": {"settings": "160 ml gaseous HFPO in 440 mL vessel"}, "[6]": {"settings": "440 ml gaseous HFPO in 440 mL vessel"}}, "data": [{"smiles": "FC(F)(F)C1(F)OC1(F)F", "note": "(stereo not drawn) [HFPO, 1,2-hexafluoropropylene oxide]", "values": [{"measurement": "retention of HFPO in aqueous solution (volatility)", "setting": "[1]", "result": "inclusion of the surfactant provides for longer retention of the HFPO in solution"}, {"measurement": "Abutilon theophrastic Medik (seeds germinated)", "setting": "[2]; [4]", "result": 0, "unit": "seeds germinated"}, {"measurement": "Abutilon theophrastic Medik (seeds germinated)", "setting": "[2]; [5]", "result": 0, "unit": "seeds germinated"}, {"measurement": "Abutilon theophrastic Medik (seeds germinated)", "setting": "[2]; [6]", "result": 0, "unit": "seeds germinated"}, {"measurement": "seed germination (in words)", "setting": "[2]; seeds of the broadleaf species Abutilon theophrasti Medik", "result": "completely prevented seed germination"}, {"measurement": "Loliium multiflorum Lam (seeds germinated)", "setting": "[3]; [4]", "result": 0, "unit": "seeds germinated"}, {"measurement": "Loliium multiflorum Lam (seeds germinated)", "setting": "[3]; [5]", "result": 0, "unit": "seeds germinated"}, {"measurement": "Loliium multiflorum Lam (seeds germinated)", "setting": "[3]; [6]", "result": 0, "unit": "seeds germinated"}, {"measurement": "seed germination (in words)", "setting": "[3]; seeds of the grass weed species Lolium multiflorum Lam", "result": "completely prevented seed germination"}]}]}
